Assay results: paper PMC5916922, “The Bexsero Neisseria meningitidis serogroup B vaccine antigen NHBA is a high-affinity chondroitin sulfate binding protein” (Scientific Reports, 2018)
Where a name gives a salt, the structure may show the parent alone. Read-outs that look alike come from different tables or passages of the source.

What was measured:
[1] = target: T1, NHBA (Neisseria Heparin Binding Antigen), recombinant (Neisseria meningitidis, UniProt Q7DD37); experiment: SPR, single cycle kinetics, immobilised NHBA
T1 construct: pET19b, His-tagged; forward primer codes from SPDVK (lipoprotein signal peptide removed); immobilised by amine coupling on CM5 chip

[2] = tested on: NHBA (Neisseria Heparin Binding Antigen), recombinant (Neisseria meningitidis MC58 (serogroup B)); experiment: SPR; settings: SPR: Biacore T200, CM5 chip, 1:5 dilution series 1 nM-100 uM, single cycle kinetics; ITC: nano-ITC, PBS-NHBA control (PBS implied); pH and temperature not …
[3] = tested on: NHBA (Neisseria Heparin Binding Antigen), recombinant (Neisseria meningitidis MC58 (serogroup B)); experiment: ITC; settings: SPR: Biacore T200, CM5 chip, 1:5 dilution series 1 nM-100 uM, single cycle kinetics; ITC: nano-ITC, PBS-NHBA control (PBS implied); pH and temperature not …
[4] = read-out: KD (μM) (mean ± standard deviation); recombinant NHBA amine-coupled to CM5 chip; glycan in flow
[5] = recombinant NHBA amine-coupled to CM5 chip; glycan in flow

T1 sequence (Q7DD37 25-488): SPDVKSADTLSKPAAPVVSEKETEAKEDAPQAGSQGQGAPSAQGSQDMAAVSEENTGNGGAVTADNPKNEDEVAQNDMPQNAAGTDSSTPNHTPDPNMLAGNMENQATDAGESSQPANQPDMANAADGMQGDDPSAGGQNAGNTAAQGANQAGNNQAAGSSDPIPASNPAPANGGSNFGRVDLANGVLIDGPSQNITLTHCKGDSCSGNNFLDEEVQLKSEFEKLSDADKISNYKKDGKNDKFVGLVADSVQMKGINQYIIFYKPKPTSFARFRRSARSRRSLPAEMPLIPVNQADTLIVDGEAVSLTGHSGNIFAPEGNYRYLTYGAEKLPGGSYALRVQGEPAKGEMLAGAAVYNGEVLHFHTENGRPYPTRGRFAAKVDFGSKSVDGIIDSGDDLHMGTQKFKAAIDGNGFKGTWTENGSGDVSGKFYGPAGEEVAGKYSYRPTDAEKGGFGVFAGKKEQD

`O=P(O)(O)OC[C@H]1O[C@@H](O)[C@H](O)[C@@H](O)[C@@H]1O` [compound 46, β-Glc6P] gave a Kd ([1]; recombinant NHBA amine-coupled to CM5 chip; glycan in flow; read-out: KD (μM) (mean ± standard deviation)) of 0.056 ± 0.025 µM.

Work on `CC(=O)N[C@H]1C(O)O[C@H](CO)[C@@H](O)[C@@H]1O[C@@H]1OC(C(=O)O)=C[C@H](O)[C@H]1O` (stereo partly drawn) [13E, Hyaluronan disaccharide ΔDi-HA] yielded a Kd [1, 4] of 0.13 ± 0.03 µM.

Compound `CC(=O)N[C@H]1C(O)O[C@H](CO)[C@@H](O[C@@H]2O[C@H](CO)[C@H](O[C@H]3O[C@H](CO)[C@H](O)[C@H](O)[C@H]3O)[C@H](O)[C@H]2O)[C@@H]1O` (stereo partly drawn) [2E, P1 antigen] has a Kd [1, 4] of 14.9 ± 3.48 µM.

Work on `CC(=O)N[C@H]1C(O)O[C@H](CO)[C@H](OS(=O)(=O)O)[C@@H]1O[C@@H]1OC(C(=O)O)=C[C@H](O)[C@H]1OS(=O)(=O)O` (stereo partly drawn) [chondroitin disaccharide sulfated at 2 of GlcA/IdoA and 4 of GalNAc] yielded a Kd [1, 5] of 0.5 µM.

Compound `CC(=O)N[C@H]1C(O)O[C@H](CO)[C@@H](O[C@@H]2O[C@@H](C)[C@@H](O)[C@@H](O)[C@@H]2O)[C@@H]1O[C@@H]1O[C@H](CO)[C@H](O)[C@H](OS(=O)(=O)O)[C@H]1O` (stereo partly drawn) [8A, Sulfo Lewis A] has a Kd [1, 4] of 33.4 ± 2.54 µM.

“503 bp PCR fragment of N. meningitidis genomic DNA” gave a Kd [2] of 71 nM and a Kd [3] of 3330 nM.

In the case of `O=S(=O)(O)O[C@@H]1[C@H](O[C@H]2O[C@@H]3CO[C@H]([C@H]2O)[C@H]3O[C@@H]2O[C@H](CO)[C@H](O)[C@H](O[C@H]3O[C@@H]4CO[C@@H]([C@H]4O)[C@H]3O)[C@H]2O)[C@@H](O)C(O)O[C@@H]1CO` (stereo partly drawn) [12B, Neocarratetraose-4^1-O-sulfate (Na+)], the Kd [1, 4] is reported as 0.446 ± 0.151 µM.

Work on `CC(=O)N[C@H]1C(O)O[C@H](COS(=O)(=O)O)[C@H](O)[C@@H]1O[C@@H]1OC(C(=O)O)=C[C@H](O)[C@H]1OS(=O)(=O)O` (stereo partly drawn) [chondroitin sulfate type D disaccharide] yielded a Kd [1, 5] of 0.0095 µM.
